Legend:
Type in all cases: cell-based, human
[1] = test system: SK-BR-3; experiment: SRB colorimetric assay of cell growth and viability, SK-BR-3; conditions: 48 hours exposure
[2] = test system: HT-29; experiment: SRB colorimetric assay of cell growth and viability, HT-29; conditions: 48 hours exposure; for GI50: read-out: GI50 HT-29
[3] = test system: LoVo; experiment: SRB colorimetric assay of cell growth and viability, LoVo; conditions: 48 hours exposure
[4] = test system: DU-145; experiment: SRB colorimetric assay of cell growth and viability, DU-145; conditions: 48 hours exposure
[5] = test system: K-562; experiment: SRB colorimetric assay of cell growth and viability, K-562; conditions: 48 hours exposure
[6] = test system: PANC-1; experiment: SRB colorimetric assay of cell growth and viability, PANC-1; conditions: 48 hours exposure
[7] = test system: SK-MEL-28; experiment: SRB colorimetric assay of cell growth and viability, SK-MEL-28; conditions: 48 hours exposure
[8] = test system: HeLa-APL; experiment: SRB colorimetric assay of cell growth and viability, HeLa-APL; conditions: 48 hours exposure
[9] = test system: A-549; experiment: SRB colorimetric assay of cell growth and viability, A-549; conditions: 48 hours exposure; for GI50: read-out: GI50 A-549
[10] = test system: IGROV-1; experiment: SRB colorimetric assay of cell growth and viability, IGROV-1; conditions: 48 hours exposure
[11] = test system: LNCaP; experiment: SRB colorimetric assay of cell growth and viability, LNCaP; conditions: 48 hours exposure; for GI50: read-out: GI50 LN-caP
Excerpt: The finality of this assay is to interrupt the growth of a “in vitro” tumor cell culture by means a continued exhibition of the cells to the sample to be testing.
This form of the assay employs 96 well cell culture microplates of 9 mm diameter (Faircloth, 1988; Mosmann, 1983). Most of the cell lines are obtained from American Type Culture Collection (ATCC) derived from different human cancer types.
Cells are maintained in RPMI 1640 10% FBS, supplemented with 0.1 g/l penicillin and 0.1 g/l streptomycin sulfate and then incubated at 37° C., 5% CO2 and 98% humidity. For the experiments, cells were harvested from subconfluent cultures using trypsin and resuspended in fresh medium before plating.
Cells are seeded in 96 well microtiter plates, at 5×10^3 cells per well in aliquots of 195 μL medium, and they are allowed to attach to the plate surface by growing in drug free medium for 18 hours. Afterward, samples are added in aliquots of 5 μL in a ranging from 10 to 10^−8 μg/mL, dissolved in DMSO:EtOH:PBS (0.5:0.5:99). After 48 hours exposure, the antitumor effect are measured by the SRB methodology: cells are fixed by adding 50 μL of cold 50% (wt/vol) trichloroacetic acid (TCA) and incubating for 60 minutes at 4° C. Plates are washed with deionized water and dried. One hundred μL of SRB solution (0.4% wt/vol in 1% acetic acid) is added to each microtiter well and incubated for 10 minutes at room temperature. Unbound SRB is removed by washing with 1% acetic acid. Plates are air dried and bound stain is solubilized with Tris buffer. Optical densities are read on a automated spectrophotometric plate reader at a single wavelength of 490 nm.
The values for mean+/− SD of data from triplicate wells are calculated. Some parameters for cellular responses can be calculated: GI=growth inhibition, TGI=total growth inhibition (cytostatic effect) and LC=cell killing (cytotoxic effect).

[12] = test system: HeLa; experiment: SRB colorimetric assay of cell growth and viability, HeLa; conditions: 48 hours exposure
[13] = test system: IGROV-ET; experiment: SRB colorimetric assay of cell growth and viability, IGROV-ET; conditions: 48 hours exposure

SMILES | GI50 [1] | TGI SK-BR-3 [1] | TGI HT-29 [2] | GI50 [2] | GI50 [3] | TGI LOVO [3] | GI50 [4] | TGI DU-145 [4] | GI50 [5] | TGI K-562 [5] | GI50 [6] | GI50 [7] | TGI MEL-28 [7] | GI50 [8] | TGI A-549 [9] | GI50 [9] | GI50 [10] | TGI IGROV [10] | TGI LN-caP [11] | GI50 [11] | also measured
C/C=C1\NC(=O)[C@H](Cc2ccccc2)NC(=O)[C@@H](C(C)C)NC(=O)[C@@H]([C@@H](C)CC)NC(=O)[C@H](NC(=O)[C@H](NC(=O)[C@H](CCCN)NC(=O)[C@H]2CCCN2C(=O)[C@H](NC(=O)[C@@H](NC(=O)[C@@H](NC(=O)[C@H](NC(=O)CCCCCCCCCCCCCCCCCCC)C(C)C)[C@@H](C)O)C(C)C)C(C)C)[C@@H](C)CC)[C@@H](C)OC(=O)[C@H](C(C)C)NC1=O [Compound 13, [Icos^14]-KF] | 861 nM | 1.86E−06 Molar | 2.32E−06 Molar | 1260 nM | 903 nM | 1.79E−06 Molar | 1280 nM | 2.28E−06 Molar | 1230 nM | 2.42E−06 Molar | 2020 nM | 1250 nM | 2.21E−06 Molar | 1250 nM | 2.13E−06 Molar | 1180 nM | 1360 nM | 2.52E−06 Molar | 2.39E−06 Molar | 1210 nM | LC50 [1]: 3990 nM; CC50 ([2]; read-out: LC50 HT-29): 4280 nM; CC50 ([3]; read-out: LC50 LOVO): 3580 nM; LC50 (concentration causing 50% net cell kill) [4]: 4040 nM; CC50 ([5]; read-out: LC50 K-562): 4710 nM; TGI PANC-1 [6]: 5.48E−06 Molar; CC50 ([6]; read-out: LC50 PANC-1): 6020 nM; CC50 ([7]; read-out: LC50 MEL-28): 3930 nM; CC50 ([8]; read-out: LC50 HELA-APL): 3980 nM; CC50 ([9]; read-out: LC50 A-549): 3820 nM; LC50 (concentration causing 50% net cell killing) [10]: 4680 nM; CC50 ([11]; read-out: LC50 LN-caP): 4730 nM; GI50 [12]: 1400 nM; TGI HELA [12]: 2.71E−06 Molar; CC50 ([12]; read-out: LC50 HELA): 5250 nM; GI50 [13]: 1660 nM; TGI IGROV-ET [13]: 2.81E−06 Molar; CC50 ([13]; read-out: LC50 IGROV-ET): 4790 nM
C/C=C1\NC(=O)[C@H](Cc2ccccc2)NC(=O)[C@@H](C(C)C)NC(=O)[C@@H]([C@@H](C)CC)NC(=O)[C@H](NC(=O)[C@H](NC(=O)[C@H](CCCN)NC(=O)[C@H]2CCCN2C(=O)[C@H](NC(=O)[C@@H](NC(=O)[C@@H](NC(=O)[C@H](NC(=O)c2ccc(C)cc2)C(C)C)[C@@H](C)O)C(C)C)C(C)C)[C@@H](C)CC)[C@@H](C)OC(=O)[C@H](C(C)C)NC1=O [Compound 19, [p-MeBza^14]-KF] | 170 nM | 3.77E−07 Molar | 1.12E−06 Molar | 314 nM | 120 nM | 2.35E−07 Molar | 775 nM | 1.73E−06 Molar | 762 nM | 2.01E−06 Molar | 2060 nM | 1160 nM | 2.24E−06 Molar | 923 nM | 1.71E−06 Molar | 775 nM | 343 nM | 1.37E−06 Molar | 2.55E−06 Molar | 1020 nM | TGI HELA-APL [8]: 2.00E−06 Molar; GI50 [12]: 849 nM; TGI HELA [12]: 1.95E−06 Molar; GI50 [13]: 439 nM; TGI IGROV-ET [13]: 1.44E−06 Molar

— patent publication US20070117743A1, “New antitumoral compounds” (priority 2003, published 2007)
